pIC50: −log10 of the molar value. Starred links: 1 amine or outer side, 2 acyl side, 3 side chain; linkers in the order of their positions; H or OH if unused. Positions of bridges follow the written chain, without caps; N, C: chain ends. Non-standard residues stand in square brackets, D forms with d. Residues, ends and D or L forms follow the SMILES beside them. Hag = O=C([C@H](CCC=[*:3])N[*:1])[*:2]; Phe(3-F) = N[C@@H](Cc1cccc(F)c1)C(=O)O; AllylGly = C=CC[C@H](N)C(=O)O; Orn = NCCC[C@H](N)C(=O)O; Ac4c = NC1(C(=O)O)CCC1

T1 sequence (O00255 whole entry): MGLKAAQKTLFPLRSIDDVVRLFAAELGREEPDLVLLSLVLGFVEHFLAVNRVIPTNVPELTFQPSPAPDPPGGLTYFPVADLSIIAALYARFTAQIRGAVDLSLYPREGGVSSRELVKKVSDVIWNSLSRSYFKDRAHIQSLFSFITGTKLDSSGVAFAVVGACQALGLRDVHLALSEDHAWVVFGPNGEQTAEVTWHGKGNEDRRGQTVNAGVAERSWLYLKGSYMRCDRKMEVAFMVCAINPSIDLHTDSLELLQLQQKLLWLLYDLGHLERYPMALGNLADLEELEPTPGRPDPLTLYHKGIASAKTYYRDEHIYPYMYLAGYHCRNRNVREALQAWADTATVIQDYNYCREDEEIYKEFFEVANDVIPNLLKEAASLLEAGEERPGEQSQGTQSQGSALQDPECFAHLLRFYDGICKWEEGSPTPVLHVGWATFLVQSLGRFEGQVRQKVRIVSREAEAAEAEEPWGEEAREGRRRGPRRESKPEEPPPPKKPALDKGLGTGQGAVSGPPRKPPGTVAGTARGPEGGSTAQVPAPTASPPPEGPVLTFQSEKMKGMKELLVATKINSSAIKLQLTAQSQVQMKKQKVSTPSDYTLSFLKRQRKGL
T1 sequence (Q03164 1-2718 partner limits assumed): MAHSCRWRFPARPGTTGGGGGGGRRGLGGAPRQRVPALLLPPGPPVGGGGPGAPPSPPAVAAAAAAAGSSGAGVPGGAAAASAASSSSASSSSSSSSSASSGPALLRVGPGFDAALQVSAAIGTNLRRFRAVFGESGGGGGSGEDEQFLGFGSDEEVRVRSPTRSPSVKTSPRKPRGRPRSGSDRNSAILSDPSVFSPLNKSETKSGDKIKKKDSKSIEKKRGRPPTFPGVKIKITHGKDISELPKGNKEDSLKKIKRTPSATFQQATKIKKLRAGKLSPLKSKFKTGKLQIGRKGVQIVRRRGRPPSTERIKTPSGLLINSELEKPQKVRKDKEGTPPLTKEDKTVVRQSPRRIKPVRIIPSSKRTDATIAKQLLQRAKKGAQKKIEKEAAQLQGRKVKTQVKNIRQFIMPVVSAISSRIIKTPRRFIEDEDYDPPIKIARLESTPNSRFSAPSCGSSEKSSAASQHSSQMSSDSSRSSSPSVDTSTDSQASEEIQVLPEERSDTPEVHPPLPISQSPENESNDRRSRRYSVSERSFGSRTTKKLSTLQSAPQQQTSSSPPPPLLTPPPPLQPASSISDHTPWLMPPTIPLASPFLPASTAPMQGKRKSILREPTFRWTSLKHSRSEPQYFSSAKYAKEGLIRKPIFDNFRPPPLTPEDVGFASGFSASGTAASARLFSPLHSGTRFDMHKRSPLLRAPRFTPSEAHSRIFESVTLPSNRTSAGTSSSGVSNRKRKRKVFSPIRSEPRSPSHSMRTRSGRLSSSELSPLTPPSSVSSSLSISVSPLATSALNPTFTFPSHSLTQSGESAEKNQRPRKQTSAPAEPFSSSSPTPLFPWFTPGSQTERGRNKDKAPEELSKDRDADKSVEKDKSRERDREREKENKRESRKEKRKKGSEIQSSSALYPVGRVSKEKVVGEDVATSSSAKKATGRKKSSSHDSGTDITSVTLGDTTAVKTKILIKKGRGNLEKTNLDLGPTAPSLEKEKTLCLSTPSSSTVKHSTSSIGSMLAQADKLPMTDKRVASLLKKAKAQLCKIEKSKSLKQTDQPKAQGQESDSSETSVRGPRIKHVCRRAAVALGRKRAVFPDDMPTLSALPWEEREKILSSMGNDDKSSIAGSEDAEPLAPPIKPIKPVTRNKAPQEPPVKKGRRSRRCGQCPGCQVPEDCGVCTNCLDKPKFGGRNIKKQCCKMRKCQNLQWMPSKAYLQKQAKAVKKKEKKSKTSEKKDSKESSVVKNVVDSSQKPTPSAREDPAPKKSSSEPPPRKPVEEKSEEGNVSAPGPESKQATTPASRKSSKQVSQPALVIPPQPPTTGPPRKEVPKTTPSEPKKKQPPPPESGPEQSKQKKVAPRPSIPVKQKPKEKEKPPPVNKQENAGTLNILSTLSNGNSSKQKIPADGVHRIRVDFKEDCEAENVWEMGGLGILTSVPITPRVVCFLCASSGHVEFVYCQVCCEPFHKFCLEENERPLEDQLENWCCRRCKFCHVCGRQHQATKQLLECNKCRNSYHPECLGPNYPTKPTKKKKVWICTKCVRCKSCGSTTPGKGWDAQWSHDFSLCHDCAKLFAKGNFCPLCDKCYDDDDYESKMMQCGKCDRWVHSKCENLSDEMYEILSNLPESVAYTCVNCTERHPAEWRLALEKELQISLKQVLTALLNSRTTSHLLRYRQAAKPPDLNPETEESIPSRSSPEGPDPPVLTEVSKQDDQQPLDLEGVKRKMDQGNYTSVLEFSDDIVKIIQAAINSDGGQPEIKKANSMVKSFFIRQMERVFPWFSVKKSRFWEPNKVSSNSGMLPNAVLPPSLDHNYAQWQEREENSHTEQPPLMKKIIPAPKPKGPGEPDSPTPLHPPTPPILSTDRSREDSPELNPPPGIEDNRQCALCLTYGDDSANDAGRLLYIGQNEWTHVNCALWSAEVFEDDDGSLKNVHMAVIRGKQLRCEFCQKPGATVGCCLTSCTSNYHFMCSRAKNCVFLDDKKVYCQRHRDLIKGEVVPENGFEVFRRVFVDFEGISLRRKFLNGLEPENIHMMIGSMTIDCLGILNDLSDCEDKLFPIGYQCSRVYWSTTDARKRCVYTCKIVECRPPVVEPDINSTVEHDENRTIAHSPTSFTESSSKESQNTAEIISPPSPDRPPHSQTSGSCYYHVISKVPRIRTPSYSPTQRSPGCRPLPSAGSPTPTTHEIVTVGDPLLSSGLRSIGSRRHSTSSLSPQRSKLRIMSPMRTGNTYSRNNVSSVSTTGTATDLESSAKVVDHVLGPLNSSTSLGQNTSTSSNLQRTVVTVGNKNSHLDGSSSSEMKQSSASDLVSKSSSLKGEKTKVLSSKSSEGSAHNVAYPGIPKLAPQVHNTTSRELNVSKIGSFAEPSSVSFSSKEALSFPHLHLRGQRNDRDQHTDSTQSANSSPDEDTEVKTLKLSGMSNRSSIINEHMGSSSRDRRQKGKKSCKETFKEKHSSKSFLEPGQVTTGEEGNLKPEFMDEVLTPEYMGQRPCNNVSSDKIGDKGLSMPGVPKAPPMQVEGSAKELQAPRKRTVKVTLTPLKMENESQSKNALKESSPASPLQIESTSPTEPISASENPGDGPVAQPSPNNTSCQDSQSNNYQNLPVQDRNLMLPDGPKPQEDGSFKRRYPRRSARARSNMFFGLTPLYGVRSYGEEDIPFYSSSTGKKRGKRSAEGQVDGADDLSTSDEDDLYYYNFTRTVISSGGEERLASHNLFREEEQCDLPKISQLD
T1 sequence (Q03164 2719-3969 partner limits assumed): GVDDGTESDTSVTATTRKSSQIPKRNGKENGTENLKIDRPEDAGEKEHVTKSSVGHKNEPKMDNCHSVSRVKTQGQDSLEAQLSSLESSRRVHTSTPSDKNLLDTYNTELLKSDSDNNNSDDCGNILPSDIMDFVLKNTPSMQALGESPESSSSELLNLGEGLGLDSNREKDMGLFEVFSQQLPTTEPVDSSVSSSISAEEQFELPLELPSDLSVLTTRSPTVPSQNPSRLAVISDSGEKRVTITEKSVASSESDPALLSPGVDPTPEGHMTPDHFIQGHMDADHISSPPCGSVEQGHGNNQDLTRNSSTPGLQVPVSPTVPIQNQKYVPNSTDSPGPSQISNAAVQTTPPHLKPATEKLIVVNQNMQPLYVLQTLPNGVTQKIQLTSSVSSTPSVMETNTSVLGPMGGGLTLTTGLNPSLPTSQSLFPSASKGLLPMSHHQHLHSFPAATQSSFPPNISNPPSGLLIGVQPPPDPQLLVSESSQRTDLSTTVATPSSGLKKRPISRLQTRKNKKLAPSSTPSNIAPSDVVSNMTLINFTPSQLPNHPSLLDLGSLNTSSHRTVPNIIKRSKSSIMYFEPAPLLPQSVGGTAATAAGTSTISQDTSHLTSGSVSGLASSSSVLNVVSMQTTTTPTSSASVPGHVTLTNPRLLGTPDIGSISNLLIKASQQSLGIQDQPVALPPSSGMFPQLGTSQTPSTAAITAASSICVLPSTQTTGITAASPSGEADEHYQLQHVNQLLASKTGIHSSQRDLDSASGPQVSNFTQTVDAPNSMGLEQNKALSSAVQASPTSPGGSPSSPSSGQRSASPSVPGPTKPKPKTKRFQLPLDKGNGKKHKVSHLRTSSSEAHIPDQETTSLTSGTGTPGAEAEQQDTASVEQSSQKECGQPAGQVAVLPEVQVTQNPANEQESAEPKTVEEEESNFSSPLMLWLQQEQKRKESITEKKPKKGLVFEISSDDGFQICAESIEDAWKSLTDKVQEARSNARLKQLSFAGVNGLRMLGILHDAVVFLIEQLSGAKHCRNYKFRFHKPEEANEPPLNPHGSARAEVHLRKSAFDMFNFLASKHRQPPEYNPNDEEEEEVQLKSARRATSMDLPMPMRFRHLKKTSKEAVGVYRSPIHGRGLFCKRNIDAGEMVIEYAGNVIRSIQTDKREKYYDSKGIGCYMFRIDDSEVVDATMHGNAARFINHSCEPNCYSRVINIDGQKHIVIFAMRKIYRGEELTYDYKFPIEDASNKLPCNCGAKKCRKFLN

The first assay addresses T1, Menin/Histone-lysine N-methyltransferase MLL (Homo sapiens, UniProt O00255). The experiment in a line: Inhibition of Menin-MLL protein-protein interaction (unknown origin) preincubated for 1 hr in presence of FLSN-MLL4-43 peptide followed by compound addition and measured after 1 hr by fluorescence polarization assay.
Consider `CC(=O)N[C@@H](C)C(=O)N[C@@H](CCCNC(=N)N)C(=O)N[C@@H](Cc1c[nH]c2ccccc12)C(=O)N[C@H]1C/C=C\C[C@@H](C(=O)N2CCC[C@H]2C(=O)N[C@@H](CCCN)C(N)=O)NC(=O)C2(CCC2)NC(=O)[C@@H]2CCCN2C(=O)[C@H](Cc2cccc(F)c2)NC1=O` (Ac-ARW[AllylGly][Phe(3-F)]P[Ac4c][AllylGly]P[Orn]-NH2; staple (Z) 4-8), for which the pIC50 was 5.91.

As for `CC(=O)N[C@@H](C)C(=O)N[C@@H](CCCNC(=N)N)C(=O)N[C@@H](Cc1c[nH]c2ccccc12)C(=O)N[C@H]1C/C=C\C[C@@H](C(=O)N2CCC[C@H]2C(=O)N[C@@H](CCCN)C(=O)N[C@@H](CCCNC(=N)N)C(=O)N[C@@H](CCCNC(=N)N)C(=O)N[C@@H](CCCNC(=N)N)C(N)=O)NC(=O)C2(CCC2)NC(=O)[C@@H]2CCCN2C(=O)[C@H](Cc2cccc(F)c2)NC1=O` (Ac-ARW[AllylGly][Phe(3-F)]P[Ac4c][AllylGly]P[Orn]RRR-NH2; staple (Z) 4-8), the pIC50 was 8.63.

With `CC(=O)N[C@@H](CO)C(=O)N[C@@H](C)C(=O)N[C@@H](CCCNC(=N)N)C(=O)N[C@@H](Cc1c[nH]c2ccccc12)C(=O)N[C@H]1C/C=C\C[C@@H](C(=O)N2CCC[C@H]2C(=O)N[C@@H](CCCN)C(N)=O)NC(=O)C2(CCC2)NC(=O)[C@@H]2CCCN2C(=O)[C@H](Cc2cccc(F)c2)NC1=O` (Ac-SARW[AllylGly][Phe(3-F)]P[Ac4c][AllylGly]P[Orn]-NH2; staple (Z) 5-9), the pIC50 was 6.11.

On to `CC(=O)N[C@@H](C)C(=O)N[C@@H](CCCNC(=N)N)C(=O)N[C@@H](Cc1c[nH]c2ccccc12)C(=O)N[C@H]1C/C=C\C[C@@H](C(=O)N2CCC[C@H]2C(=O)N[C@@H](CCCN)C(=O)N[C@@H](CCCNC(=N)N)C(N)=O)NC(=O)C2(CCC2)NC(=O)[C@@H]2CCCN2C(=O)[C@H](Cc2cccc(F)c2)NC1=O` (Ac-ARW[AllylGly][Phe(3-F)]P[Ac4c][AllylGly]P[Orn]R-NH2; staple (Z) 4-8), for which the pIC50 is 7.24.

Take `CC(=O)N[C@@H](C)C(=O)N[C@@H](CCCNC(=N)N)C(=O)N[C@@H](Cc1c[nH]c2ccccc12)C(=O)N[C@H]1CCCC[C@@H](C(=O)N2CCC[C@H]2C(=O)N[C@@H](CCCN)C(=O)N[C@@H](CCCNC(=N)N)C(N)=O)NC(=O)C2(CCC2)NC(=O)[C@@H]2CCCN2C(=O)[C@H](Cc2cccc(F)c2)NC1=O`: the pIC50 was 7.85.

In the case of `CC(=O)N[C@@H](CO)C(=O)N[C@@H](C)C(=O)N[C@@H](CCCNC(=N)N)C(=O)N[C@@H](Cc1c[nH]c2ccccc12)C(=O)N[C@H]1CCCC[C@@H](C(=O)N2CCC[C@H]2C(=O)N[C@@H](CCCN)C(N)=O)NC(=O)C2(CCC2)NC(=O)[C@@H]2CCCN2C(=O)[C@H](Cc2cccc(F)c2)NC1=O`, the pIC50 was 6.24.

`CC(=O)N[C@@H](C)C(=O)N[C@@H](CCCNC(=N)N)C(=O)N[C@@H](Cc1c[nH]c2ccccc12)C(=O)N[C@H]1CCCC[C@@H](C(=O)N2CCC[C@H]2C(=O)N[C@@H](CCCN)C(=O)N[C@@H](CCCNC(=N)N)C(=O)N[C@@H](CCCNC(=N)N)C(=O)N[C@@H](CCCNC(=N)N)C(N)=O)NC(=O)C2(CCC2)NC(=O)[C@@H]2CCCN2C(=O)[C@H](Cc2cccc(F)c2)NC1=O`: the pIC50 was 8.34.

Turning to Ac-RWRFPARPGTGRR-NH2, the pIC50 is 7.31.

In the next assay the target is T1, Menin/Histone-lysine N-methyltransferase MLL. In words: Inhibition of Menin-MLL protein-protein interaction (unknown origin) preincubated for 1 hr in presence of FLSN-MBM1 peptide followed by compound addition and measured after 1 hr by fluorescence polarization assay.
For `CC(=O)N[C@@H](CO)C(=O)N[C@@H](C)C(=O)N[C@@H](CCCNC(=N)N)C(=O)N[C@@H](Cc1c[nH]c2ccccc12)C(=O)N[C@H]1C/C=C\C[C@@H](C(=O)N2CCC[C@H]2C(=O)NCC(=O)N[C@H](C(N)=O)[C@@H](C)O)NC(=O)[C@H](C)NC(=O)[C@@H]2CCCN2C(=O)[C@H](Cc2ccccc2)NC1=O` (Ac-SARW[AllylGly]FPA[AllylGly]PGT-NH2; staple (Z) 5-9), the pIC50 was 4.39.

As for `CC(=O)N[C@@H](Cc1c[nH]c2ccccc12)C(=O)N[C@H]1C/C=C\C[C@@H](C(=O)N2CCC[C@H]2C(=O)N[C@@H](CCCNC(=N)N)C(N)=O)NC(=O)[C@H](C)NC(=O)[C@@H]2CCCN2C(=O)[C@H](Cc2ccccc2)NC1=O` (Ac-W[AllylGly]FPA[AllylGly]PR-NH2; staple (Z) 2-6), the pIC50 is 4.11.

As to `CC(=O)N[C@@H](CCCNC(=N)N)C(=O)N[C@@H](Cc1c[nH]c2ccccc12)C(=O)N[C@H]1C/C=C\C[C@@H](C(=O)N2CCC[C@H]2C(=O)N[C@@H](CCCNC(=N)N)C(N)=O)NC(=O)[C@H](C)NC(=O)[C@@H]2CCCN2C(=O)[C@H](Cc2ccccc2)NC1=O` (Ac-RW[AllylGly]FPA[AllylGly]PR-NH2; staple (Z) 3-7), the pIC50 is 6.43.

Consider `CC(=O)N[C@@H](CO)C(=O)N[C@@H](C)C(=O)N[C@@H](CCCNC(=N)N)C(=O)N[C@@H](Cc1c[nH]c2ccccc12)C(=O)N[C@H]1C/C=C\C[C@@H](C(=O)N2CCC[C@H]2C(=O)N[C@@H](CCCN)C(N)=O)NC(=O)[C@H](C)NC(=O)[C@@H]2CCCN2C(=O)[C@H](Cc2ccccc2)NC1=O` (Ac-SARW[AllylGly]FPA[AllylGly]P[Orn]-NH2; staple (Z) 5-9), for which the pIC50 was 6.85.

In the case of `CC(=O)N[C@@H](CO)C(=O)N[C@@H](C)C(=O)N[C@@H](CCCNC(=N)N)C(=O)N[C@@H](Cc1c[nH]c2ccccc12)C(=O)N[C@H]1C/C=C\C[C@@H](C(=O)N2CCC[C@H]2C(=O)N[C@@H](CCCNC(=N)N)C(N)=O)NC(=O)C2(CCC2)NC(=O)[C@@H]2CCCN2C(=O)[C@H](Cc2ccccc2)NC1=O` (Ac-SARW[AllylGly]FP[Ac4c][AllylGly]PR-NH2; staple (Z) 5-9), the pIC50 was 7.08.

Consider `CC(=O)N[C@@H](CO)C(=O)N[C@@H](C)C(=O)N[C@@H](CCCNC(=N)N)C(=O)N[C@@H](Cc1c[nH]c2ccccc12)C(=O)N[C@H]1CCCCCC[C@@H](C(=O)N2CCC[C@H]2C(=O)N[C@@H](CCCNC(=N)N)C(N)=O)NC(=O)[C@H](C)NC(=O)[C@@H]2CCCN2C(=O)[C@H](Cc2ccccc2)NC1=O`, for which the pIC50 is 6.18.

`CC(=O)N[C@@H](CO)C(=O)N[C@@H](C)C(=O)N[C@@H](CCCNC(=N)N)C(=O)N[C@@H](Cc1c[nH]c2ccccc12)C(=O)N[C@H]1C/C=C\CC[C@@H](C(=O)N2CCC[C@H]2C(=O)N[C@@H](CCCNC(=N)N)C(N)=O)NC(=O)[C@H](C)NC(=O)[C@@H]2CCCN2C(=O)[C@H](Cc2ccccc2)NC1=O` (Ac-SARW[AllylGly]FPA[Hag]PR-NH2; staple (Z) 5-9): the pIC50 is 5.52.

Regarding `CC(=O)N[C@@H](CO)C(=O)N[C@@H](C)C(=O)N[C@@H](CCCNC(=N)N)C(=O)N[C@@H](Cc1c[nH]c2ccccc12)C(=O)N[C@H]1C/C=C\C[C@@H](C(=O)N2CCC[C@H]2C(=O)N[C@@H](CCCNC(=N)N)C(N)=O)NC(=O)[C@H](C)NC(=O)[C@@H]2CCCN2C(=O)[C@H](Cc2ccccc2)NC1=O` (Ac-SARW[AllylGly]FPA[AllylGly]PR-NH2; staple (Z) 5-9), the pIC50 was 6.11.

With Ac-SARWAFPAAP-NH2, the pIC50 is 4.72.

Take Ac-SARWAFPAAPRT-NH2: the pIC50 is 5.77.

In the case of `CC(=O)N[C@@H](CO)C(=O)N[C@@H](C)C(=O)N[C@@H](CCCNC(=N)N)C(=O)N[C@@H](Cc1c[nH]c2ccccc12)C(=O)N[C@H]1CCCC[C@@H](C(=O)N2CCC[C@H]2C(=O)N[C@@H](CCCNC(=N)N)C(N)=O)NC(=O)[C@H](C)NC(=O)[C@@H]2CCCN2C(=O)[C@H](Cc2ccccc2)NC1=O`, the pIC50 is 6.91.

With `CC(=O)N[C@@H](C)C(=O)N[C@@H](CCCNC(=N)N)C(=O)N[C@@H](Cc1c[nH]c2ccccc12)C(=O)N[C@H]1C/C=C\C[C@@H](C(=O)N2CCC[C@H]2C(=O)N[C@@H](CCCNC(=N)N)C(N)=O)NC(=O)[C@H](C)NC(=O)[C@@H]2CCCN2C(=O)[C@H](Cc2ccccc2)NC1=O` (Ac-ARW[AllylGly]FPA[AllylGly]PR-NH2; staple (Z) 4-8), the pIC50 is 6.82.

Take `CC(=O)N[C@@H](CO)C(=O)N[C@@H](C)C(=O)N[C@@H](CCCNC(=N)N)C(=O)N[C@@H](Cc1c[nH]c2ccccc12)C(=O)N[C@H]1CC/C=C\CC[C@@H](C(=O)N2CCC[C@H]2C(=O)N[C@@H](CCCNC(=N)N)C(N)=O)NC(=O)[C@H](C)NC(=O)[C@@H]2CCCN2C(=O)[C@H](Cc2ccccc2)NC1=O` (Ac-SARW[Hag]FPA[Hag]PR-NH2; staple (Z) 5-9): the pIC50 is 5.96.

Regarding Ac-SARWAFPAAPGT-NH2, the pIC50 is 4.21.

For the molecule `CC(=O)N[C@@H](CO)C(=O)N[C@@H](C)C(=O)N[C@@H](CCCNC(=N)N)C(=O)N[C@@H](Cc1c[nH]c2ccccc12)C(=O)N[C@H]1C/C=C\C[C@@H](C(=O)N2CCC[C@H]2C(=O)N[C@@H](CCCCN)C(N)=O)NC(=O)[C@H](C)NC(=O)[C@@H]2CCCN2C(=O)[C@H](Cc2ccccc2)NC1=O` (Ac-SARW[AllylGly]FPA[AllylGly]PK-NH2; staple (Z) 5-9), the pIC50 is 5.86.

Take `CC(=O)N[C@@H](CO)C(=O)N[C@@H](C)C(=O)N[C@@H](CCCNC(=N)N)C(=O)N[C@@H](Cc1c[nH]c2ccccc12)C(=O)N[C@H]1C/C=C\C[C@@H](C(=O)N2CCC[C@H]2C(N)=O)NC(=O)[C@H](C)NC(=O)[C@@H]2CCCN2C(=O)[C@H](Cc2ccccc2)NC1=O` (Ac-SARW[AllylGly]FPA[AllylGly]P-NH2; staple (Z) 5-9): the pIC50 is 5.17.

For `CC(=O)N[C@@H](CO)C(=O)N[C@@H](C)C(=O)N[C@@H](CCCNC(=N)N)C(=O)N[C@@H](Cc1c[nH]c2ccccc12)C(=O)N[C@H]1C/C=C\C[C@@H](C(=O)N2CCC[C@H]2C(=O)N[C@@H](CCCNC(=N)N)C(=O)N[C@H](C(N)=O)[C@@H](C)O)NC(=O)[C@H](C)NC(=O)[C@@H]2CCCN2C(=O)[C@H](Cc2ccccc2)NC1=O` (Ac-SARW[AllylGly]FPA[AllylGly]PRT-NH2; staple (Z) 5-9), the pIC50 was 5.74.

Take `CC(=O)N[C@@H](CO)C(=O)N[C@@H](C)C(=O)N[C@@H](CCCNC(=N)N)C(=O)N[C@@H](Cc1c[nH]c2ccccc12)C(=O)N[C@H]1C/C=C\C[C@@H](C(=O)N2CCC[C@H]2C(=O)N[C@@H](CCCNC(=N)N)C(N)=O)NC(=O)[C@H](C)NC(=O)[C@@H]2CCCN2C(=O)[C@H](Cc2cccc(F)c2)NC1=O` (Ac-SARW[AllylGly][Phe(3-F)]PA[AllylGly]PR-NH2; staple (Z) 5-9): the pIC50 is 6.55.

With Ac-SARWAFPAGPR-NH2, the pIC50 is 5.89.

Source of the values: ChEMBL document CHEMBL4765443, “Covalent and noncovalent constraints yield a figure eight-like conformation of a peptide inhibiting the menin-MLL interaction” (Eur J Med Chem, 2020).
